Results published in the NIST ThermoML archive (doi:10.1016/j.fluid.2012.08.023).
Numbers after ± are expanded uncertainties.

Conditions: Liquid, Closed cell (Static) method

vapor or sublimation pressure (268.13 K)	vapor or sublimation pressure (278.36 K)	vapor or sublimation pressure (288.16 K)	vapor or sublimation pressure (298.13 K)	SMILES
91 ± 12 kPa	134.6 ± 12 kPa	192.9 ± 12 kPa	268.8 ± 12 kPa	FC(F)(F)C(F)(F)C(F)(F)C(F)(F)F [decafluorobutane]
3648.5 ± 22 kPa	4611.2 ± 26 kPa			C=C [ethene]
